What was measured:
Assay type in all cases: in vivo
Myzus persicae [1] = experiment: Myzus persicae test on cabbage; settings: cabbage leaves sprayed
Experimental: (§1) Solvents: 78 parts by weight of acetone
(§2) • 1.5 parts by weight of dimethylformamide Emulsifier: 0.5 part by weight of alkylaryl polyglycol ether
(§3) To produce a suitable preparation of active compound, 1 part by weight of active compound is mixed with the stated amount of solvent and emulsifier, and the concentrate is diluted with emulsifier-containing water to the desired concentration.
Cabbage leaves (Brassica oleracea) which are heavily infested by the green peach aphid (Myzus persicae) are treated by spraying with the active compound preparation of the desired concentration.
(§4) After the desired period of time, the kill in % is determined. 100% means that all of the aphids have been killed; 0% means that none of the aphids have been killed. The kill rates determined are entered into Colby's formula (see above).

Phaedon cochleariae = Phaedon cochleariae larvae test; settings: cabbage leaves sprayed
Experimental: as §1, §2, §3
Cabbage leaves (Brassica oleracea) are treated by spraying with the active ingredient formulation of the desired concentration and populated with larvae of the mustard beetle (Phaedon cochleariae) while the leaves are still moist.
After the desired period of time, the kill in % is determined. 100% means that all beetle larvae have been killed; 0% means that none of the beetle larvae have been killed. The kill rates determined are entered into Colby's formula (see above).

Tetranychus urticae = Tetranychus urticae test (OP-resistant/spray treatment); settings: bean leaf discs sprayed
Experimental: as §1, §2, §3
Discs of bean leaves (Phaseolus vulgaris) which are infested by all stages of the greenhouse red spider mite (Tetranychus urticae) are sprayed with an active compound preparation of the desired concentration.
After the desired period of time, the effect in % is determined. 100% means that all of the spider mites have been killed; 0% means that none of the spider mites have been killed.

Spodoptera frugiperda = Spodoptera frugiperda larvae test; settings: cabbage leaves sprayed
Experimental: as §1, §2, §3
Cabbage leaves (Brassica oleracea) are treated by being sprayed with the preparation of active compound of the desired concentration and are populated with larvae of the armyworm (Spodoptera frugiperda) while the leaves are still moist.
After the desired period of time, the kill in % is determined. 100% means that all caterpillars have been killed; 0% means that none of the caterpillars have been killed. The kill rates determined are entered into Colby's formula (see above).

Myzus persicae [2] = experiment: Myzus persicae test on bell pepper; settings: 0.8 g/ha, bell-pepper plants sprayed
Experimental: Solvent: 7 parts by weight of dimethylformamide
Emulsifier: 2 parts by weight of alkylaryl polyglycol ether
as §3
Bell-pepper plants (Capsicum annuum) which are heavily infested by the green peach aphid (Myzus persicae) are treated by spraying with the active compound preparation of the desired concentration.
as §4

CC1(C)C(C=C(Cl)Cl)C1C(=O)OC(C#N)c1cccc(Oc2ccccc2)c1 (stereo not drawn) [alpha-cypermethrin]
Kill in % after 1d (Myzus persicae [1]; 0.16 g/ha): 30%

CC1(C)C(C=C(Cl)Cl)C1C(=O)OC(C#N)c1ccc(F)c(Oc2ccccc2)c1 (stereo not drawn) [beta-cyfluthrin]
Kill in % after 1d (Myzus persicae [1]; 0.16 g/ha): 40%
Kill in % after 2d (Phaedon cochleariae; 0.8 g/ha): 50%
Kill in % after 2d (Phaedon cochleariae; 4 g/ha): 83%

Cc1c(COC(=O)C2C(/C=C(\Cl)C(F)(F)F)C2(C)C)cccc1-c1ccccc1 (stereo not drawn) [bifenthrin]
Kill in % after 6d (Myzus persicae [1]; 0.032 g/ha): 0%
Kill in % after 1d (Myzus persicae [1]; 0.16 g/ha): 20%
Kill in % after 2d (Phaedon cochleariae; 4 g/ha): 67%
Kill in % after 2d (Tetranychus urticae; 4 g/ha): 30%

O=C1C=C(N(CCF)Cc2ccc(Cl)nc2)CO1 [compound (I-4), 4-{[(6-chloropyrid-3-yl)methyl](2-fluoroethyl)amino}furan-2(5H)-one]
Kill in % after 1d (Myzus persicae [1]; 4 g/ha): 30%
Kill in % after 6d (Phaedon cochleariae; 20 g/ha): 0%
Kill in % after 6d (Phaedon cochleariae; 100 g/ha): 0%
Kill in % after 2d (Spodoptera frugiperda; 20 g/ha): 0%
Kill in % after 2d (Spodoptera frugiperda; 100 g/ha): 0%
Kill in % after 2d (Tetranychus urticae; 100 g/ha): 0%

O=C1C=C(N(Cc2ccc(Cl)nc2)CC(F)F)CO1 [compound (I-5), 4-{[(6-chloropyrid-3-yl)methyl](2,2-difluoroethyl)amino}furan-2(5H)-one]
Kill in % after 1d (Myzus persicae [1]; 0.8 g/ha): 10%
Kill in % after 6d (Myzus persicae [1]; 0.8 g/ha): 10%
Kill in % after 6d (Myzus persicae [2]): 45%
Kill in % after 2d (Phaedon cochleariae; 20 g/ha): 0%
Kill in % after 2d (Spodoptera frugiperda; 20 g/ha): 0%
Kill in % after 2d (Spodoptera frugiperda; 100 g/ha): 0%

CN(Cc1cnc(Cl)c(F)c1)C1=CC(=O)OC1 [compound (I-6), 4-{[(6-chloro-5-fluorpyrid-3-yl)methyl](methyl)amino}furan-2(5H)-one]
Kill in % after 2d (Phaedon cochleariae; 4 g/ha): 0%
Kill in % after 2d (Phaedon cochleariae; 100 g/ha): 0%
Kill in % after 6d (Phaedon cochleariae; 100 g/ha): 0%
Kill in % after 2d (Spodoptera frugiperda; 20 g/ha): 0%
Kill in % after 2d (Spodoptera frugiperda; 100 g/ha): 0%

CC1(C)C(C=C(Cl)Cl)C1C(=O)OC(C#N)c1cccc(Oc2ccccc2)c1 (stereo not drawn) [cypermethrin]
Kill in % after 1d (Myzus persicae [1]; 0.16 g/ha): 10%
Kill in % after 1d (Myzus persicae [1]; 0.8 g/ha): 20%

CC1(C)[C@H](C(=O)OC(C#N)c2cccc(Oc3ccccc3)c2)[C@@H]1C=C(Br)Br (stereo partly drawn) [deltamethrin]
Kill in % after 6d (Myzus persicae [1]; 0.032 g/ha): 0%
Kill in % after 2d (Spodoptera frugiperda; 0.8 g/ha): 50%

CC1(C)[C@H](C(=O)O[C@@H](C#N)c2cccc(Oc3ccccc3)c2)[C@@H]1/C=C(\Cl)C(F)(F)F [gamma-cyhalothrin]
Kill in % after 1d (Myzus persicae [1]; 0.16 g/ha): 0%
Kill in % after 2d (Spodoptera frugiperda; 4 g/ha): 67%

CC1(C)C(/C=C(\Cl)C(F)(F)F)C1C(=O)OC(C#N)c1cccc(Oc2ccccc2)c1 (stereo not drawn) [lambda-cyhalothrin]
Kill in % after 1d (Myzus persicae [1]; 0.032 g/ha): 0%
Kill in % after 2d (Phaedon cochleariae; 0.16 g/ha): 33%
Kill in % after 2d (Spodoptera frugiperda; 4 g/ha): 33%
Kill in % after 2d (Tetranychus urticae; 4 g/ha): 0%

CC1(C)[C@H](C=C(Cl)Cl)[C@H]1C(=O)OCc1c(F)c(F)cc(F)c1F [transfluthrin]
Kill in % after 6d (Myzus persicae [2]): 0%

— patent US8828906B2, “Active compound combinations having insecticidal and acaricidal properties” (Bayer CropScience AG, priority 2009, dated 2014)
